pIC50: −log10 of the molar value. Strand notation (5' to 3'): a small letter for the sugar, then the base; units joined by * are phosphorothioate-linked, units joined directly phosphodiester-linked; [ ] holds rarer units or linkages, { } end groups; capitals alone tell only the bases. e = 2'-O-(2-methoxyethyl) (MOE); [5mC] = 5-methylcytosine; d = 2'-deoxy (DNA)
Experiments:
human PKK mRNA [1] = test: Antisense inhibition of human PKK mRNA in HepaRG cells, 5,000 nM (Example 2); assay type: cell-based
Method in brief: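 Percent inhibition of PKK mRNA is relative to untreated control, with qRT-PCR (probe set RTS3454) values adjusted to total RNA by RIBOGREEN. Oligonucleotides, fully phosphorothioate 2′-MOE gapmers, were delivered at 5,000 nM by electroporation into 20,000 HepaRG cells/well for about 24 h.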

human PKK mRNA [2] = test: Dose-dependent antisense inhibition of human PKK in HepaRG cells, 0.19-5.00 uM (Example 5); assay type: cell-based; details: HepaRG cells; for percent inhibition of PKK at 0.19 μM / percent inhibition of PKK at 0.56 μM / percent inhibition of PKK at 1.67 μM / percent inhibition of PKK at 5.00 μM: electroporation, approximately 16 hours; for percent inhibition of PKK mRNA, 0.19 μM: 0.19 μM antisense oligonucleotide; for percent inhibition of PKK mRNA, 0.56 μM: 0.56 μM antisense oligonucleotide; for percent inhibition of PKK mRNA, 1.67 μM: 1.67 μM antisense oligonucleotide; for percent inhibition of PKK mRNA, 5.00 μM: 5.00 μM antisense oligonucleotide
Method in brief: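 PKK mRNA knockdown was measured by real-time PCR (primer probe set RTS3454) about 16 h after electroporating 20,000 HepaRG cells per well with oligonucleotide at four doses from 0.19 to 5.00 μM. Levels were adjusted to RIBOGREEN-measured total RNA, and IC50 values were calculated.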

[3] = Table 7, HepaRG cells, electroporation with 5,000 nM antisense oligonucleotide, approx. 24 hours, PKK mRNA by RT-PCR (RTS3454), relative to untreated control cells
[4] = HepaRG cells, 5,000 nM antisense oligonucleotide, 5-10-5 gapmers, Table 17
[5] = 4 point dose response, Table 40
[6] = human PKK mRNA in HepaRG cells, 5-10-5 gapmers, Table 14
[7] = 4 point dose response, Table 38
[8] = HepaRG cells, electroporation, 5,000 nM antisense oligonucleotide, approx. 24 hours, primer probe set RTS3454, relative to untreated control cells, Table 11
[9] = 4 point dose response, Table 39
[10] = HepaRG cells, electroporation with 5,000 nM antisense oligonucleotide, approximately 24 hours, PKK mRNA by RT-PCR (RTS3454), relative to untreated control cells, Table 5 experiment

| Substance | percent inhibition of PKK at 0.19 μM (human PKK mRNA [2]; Table 38) [%] | percent inhibition of PKK at 0.56 μM (human PKK mRNA [2]; Table 38) [%] | percent inhibition of PKK at 1.67 μM (human PKK mRNA [2]; Table 38) [%] | percent inhibition of PKK at 5.00 μM (human PKK mRNA [2]; Table 38) [%] | pIC50 (human PKK mRNA [2]; [7]) | percent inhibition of PKK mRNA, 0.19 μM (human PKK mRNA [2]) [%] | percent inhibition of PKK mRNA, 0.56 μM (human PKK mRNA [2]) [%] | percent inhibition of PKK mRNA, 1.67 μM (human PKK mRNA [2]) [%] | percent inhibition of PKK mRNA, 5.00 μM (human PKK mRNA [2]) [%] | pIC50 (human PKK mRNA [2]; 0.19-5.00 μM) | also measured |
| --- | --- | --- | --- | --- | --- | --- | --- | --- | --- | --- | --- |
| 547368 (eG*e[5mC]*eA*eT*e[5mC]*dT*dG*dG*dA*dG*dT*dG*dA*dG*dA*eA*e[5mC]*e[5mC]*e[5mC]*eT; antisense) [compound 547368] | – | – | – | – | – | – | – | – | – | – | % inhibition (human PKK mRNA [1]; [3]): 89%; percent inhibition of PKK at 0.19 μM (human PKK mRNA [2]; Table 37): 0%; percent inhibition of PKK at 0.56 μM (human PKK mRNA [2]; Table 37): 0%; percent inhibition of PKK at 1.67 μM (human PKK mRNA [2]; Table 37): 31%; percent inhibition of PKK at 5.00 μM (human PKK mRNA [2]; Table 37): 80%; pIC50 (human PKK mRNA [2]; 4 point dose response, Table 37): 5.60 |
| 547728 (eG*eA*eG*eA*eT*dT*dG*dG*dT*dG*dG*dT*dG*dG*dG*eT*eG*eG*e[5mC]*eA; antisense) [compound 547728] | – | – | – | – | – | – | – | – | – | – | % inhibition (human PKK mRNA [1]; [4]): 88%; percent inhibition of PKK at 0.19 μM (human PKK mRNA [2]; Table 40): 0%; percent inhibition of PKK at 0.56 μM (human PKK mRNA [2]; Table 40): 2%; percent inhibition of PKK at 1.67 μM (human PKK mRNA [2]; Table 40): 16%; percent inhibition of PKK at 5.00 μM (human PKK mRNA [2]; Table 40): 61%; pIC50 (human PKK mRNA [2]; [5]): 5.36 |
| 547584 (eG*eT*eA*eT*e[5mC]*dA*d[5mC]*dT*dG*dT*d[5mC]*d[5mC]*dT*dA*dT*eA*eT*e[5mC]*eA*e[5mC]; antisense) [compound 547584] | 26 | 34 | 76 | 86 | 6.15 | 0 | 21 | 64 | 92 | 5.89 | % inhibition (human PKK mRNA [1]; [6]): 85% |
| 546358 (antisense e[5mC]*eT*eG*eA*eG*d[5mC]*dT*dT*dT*dT*d[5mC]*d[5mC]*dA*dT*d[5mC]*eA*e[5mC]*eT*eG*e[5mC]) [compound 546358] | 0 | 19 | 71 | 80 | 5.89 | – | – | – | – | – | % inhibition (human PKK mRNA [1]; [8]): 83% |
| 546248 (e[5mC]*e[5mC]*eT*e[5mC]*e[5mC]*dA*dA*dA*dG*dT*d[5mC]*dA*dA*d[5mC]*dT*e[5mC]*e[5mC]*e[5mC]*eG*eG; antisense) [compound 546248] | – | – | – | – | – | 0 | 59 | 73 | 89 | 6.10 | % inhibition (human PKK mRNA [1]; [3]): 86%; percent inhibition of PKK at 0.19 μM (human PKK mRNA [2]; Table 39): 25%; percent inhibition of PKK at 0.56 μM (human PKK mRNA [2]; Table 39): 66%; percent inhibition of PKK at 1.67 μM (human PKK mRNA [2]; Table 39): 87%; percent inhibition of PKK at 5.00 μM (human PKK mRNA [2]; Table 39): 93%; pIC50 (human PKK mRNA [2]; [9]): 6.40 |
| 546403 (e[5mC]*e[5mC]*eA*eT*eG*dA*dA*d[5mC]*dA*dT*d[5mC]*d[5mC]*dT*dA*dT*e[5mC]*e[5mC]*eG*eT*eG; antisense) [compound 546403] | 0 | 20 | 37 | 41 | < 5.30 | – | – | – | – | – | % inhibition (human PKK mRNA [1]; HepaRG cells, electroporation, 5,000 nM antisense oligonucleotide, approx. 24 hours, primer probe set RTS3454, relative to untreated control cells, Table 12): 83% |
| 547006 (e[5mC]*eG*e[5mC]*e[5mC]*eA*dT*d[5mC]*dT*dG*d[5mC]*d[5mC]*d[5mC]*dT*dG*dT*eA*e[5mC]*eA*eG*eA; antisense) [compound 547006] | 0 | 0 | 54 | 77 | 5.82 | – | – | – | – | – | % inhibition (human PKK mRNA [1]; [4]): 39% |
| 547617 (antisense e[5mC]*eT*eG*eT*e[5mC]*d[5mC]*dT*dA*dT*dA*dT*d[5mC]*dA*d[5mC]*dT*eG*eT*eA*e[5mC]*e[5mC]) [compound 547617] | – | – | – | – | – | 17 | 37 | 79 | 98 | 6.15 | % inhibition (human PKK mRNA [1]; [6]): 91%; percent inhibition of PKK at 0.19 μM (human PKK mRNA [2]; Table 36): 52%; percent inhibition of PKK at 0.56 μM (human PKK mRNA [2]; Table 36): 66%; percent inhibition of PKK at 1.67 μM (human PKK mRNA [2]; Table 36): 77%; percent inhibition of PKK at 5.00 μM (human PKK mRNA [2]; Table 36): 93%; pIC50 (human PKK mRNA [2]; 4 point dose response, Table 36): 6.70 |
| 547632 (antisense eT*e[5mC]*eA*e[5mC]*eT*dG*dT*d[5mC]*d[5mC]*dT*dA*dT*dA*dT*d[5mC]*eA*e[5mC]*eT*e[5mC]*eT) [compound 547632] | – | – | – | – | – | 0 | 0 | 63 | 91 | 5.80 | % inhibition (human PKK mRNA [1]; human PKK mRNA, HepaRG cells, 5-10-5 motif oligonucleotides targeting SEQ ID NO: 1 and 10): 87%; percent inhibition of PKK at 0.19 μM (human PKK mRNA [2]; Table 39): 44%; percent inhibition of PKK at 0.56 μM (human PKK mRNA [2]; Table 39): 47%; percent inhibition of PKK at 1.67 μM (human PKK mRNA [2]; Table 39): 81%; percent inhibition of PKK at 5.00 μM (human PKK mRNA [2]; Table 39): 97%; pIC50 (human PKK mRNA [2]; [9]): 6.22 |
| 547276 (antisense e[5mC]*eA*eA*eT*eT*dG*d[5mC]*dT*dT*d[5mC]*dT*dT*dG*dG*dA*eG*eG*eT*eG*eA) [compound 547276] | – | – | – | – | – | 6 | 3 | 53 | 68 | 5.66 | % inhibition (human PKK mRNA [1]; [10]): 93%; percent inhibition of PKK at 0.19 μM (human PKK mRNA [2]; Table 35): 35%; percent inhibition of PKK at 0.56 μM (human PKK mRNA [2]; Table 35): 44%; percent inhibition of PKK at 1.67 μM (human PKK mRNA [2]; Table 35): 71%; percent inhibition of PKK at 5.00 μM (human PKK mRNA [2]; Table 35): 77%; pIC50 (human PKK mRNA [2]; 4 point dose response, Table 35): 6.22 |
| 546848 (eT*e[5mC]*eA*e[5mC]*eT*dG*dT*d[5mC]*d[5mC]*dT*dA*dT*dA*dT*d[5mC]*eA*e[5mC]*eT*eG*eT; antisense) [compound 546848] | – | – | – | – | – | – | – | – | – | – | % inhibition (human PKK mRNA [1]; Table 13, human PKK mRNA in HepaRG cells, 5-10-5 gapmers): 86%; percent inhibition of PKK at 0.19 μM (human PKK mRNA [2]; Table 39): 0%; percent inhibition of PKK at 0.56 μM (human PKK mRNA [2]; Table 39): 18%; percent inhibition of PKK at 1.67 μM (human PKK mRNA [2]; Table 39): 91%; percent inhibition of PKK at 5.00 μM (human PKK mRNA [2]; Table 39): 97%; pIC50 (human PKK mRNA [2]; [9]): 6.00 |
| 547493 (antisense eT*e[5mC]*eT*eG*eA*dG*d[5mC]*dT*dT*dT*dT*d[5mC]*d[5mC]*dA*dT*e[5mC]*eA*e[5mC]*eT*eG) [compound 547493] | – | – | – | – | – | – | – | – | – | – | % inhibition (human PKK mRNA [1]; [8]): 72%; percent inhibition of PKK at 0.19 μM (human PKK mRNA [2]; Table 40): 0%; percent inhibition of PKK at 0.56 μM (human PKK mRNA [2]; Table 40): 26%; percent inhibition of PKK at 1.67 μM (human PKK mRNA [2]; Table 40): 64%; percent inhibition of PKK at 5.00 μM (human PKK mRNA [2]; Table 40): 77%; pIC50 (human PKK mRNA [2]; [5]): 5.89 |
| 547718 (eA*eT*eA*eA*eA*dG*dT*dG*d[5mC]*dG*dA*dT*dT*dA*dA*eG*e[5mC]*e[5mC]*e[5mC]*e[5mC]; antisense) [compound 547718] | – | – | – | – | – | – | – | – | – | – | % inhibition (human PKK mRNA [1]; HepaRG cells, 5,000 nM antisense oligonucleotide, 5-10-5 gapmers, Table 16): 86%; percent inhibition of PKK at 0.19 μM (human PKK mRNA [2]; Table 39): 36%; percent inhibition of PKK at 0.56 μM (human PKK mRNA [2]; Table 39): 12%; percent inhibition of PKK at 1.67 μM (human PKK mRNA [2]; Table 39): 69%; percent inhibition of PKK at 5.00 μM (human PKK mRNA [2]; Table 39): 74%; pIC50 (human PKK mRNA [2]; [9]): 5.80 |
| 547294 (antisense e[5mC]*eT*e[5mC]*eA*eT*d[5mC]*dT*dG*dG*d[5mC]*dA*dG*dT*dA*dT*eT*eG*eG*eG*e[5mC]) [compound 547294] | 28 | 59 | 87 | 86 | 6.40 | 4 | 70 | 84 | 91 | 6.22 | % inhibition (human PKK mRNA [1]; [10]): 85% |
| 547514 (antisense eA*eG*eA*eT*eG*d[5mC]*d[5mC]*dA*d[5mC]*dT*d[5mC]*dT*d[5mC]*d[5mC]*dA*eT*eG*e[5mC]*eT*eT) [compound 547514] | 18 | 8 | 51 | 80 | 5.72 | – | – | – | – | – | % inhibition (human PKK mRNA [1]; [8]): 85% |

— US11840686B2, “Modulation of prekallikrein (PKK) expression” (Ionis Pharmaceuticals, Inc., priority 2013, dated 2023)
